Measured values published in patent publication EP0972448A2, “Parasitic mite control on beneficial insects” (American Cyanamid Company, priority 1998, dated 2000).

How the values were obtained:
Assay type in all cases: in vivo
Varroa jacobsoni = test: Field evaluation against Varroa jacobsoni in infested beehives, stickyboard mite count; settings: two strips with 18% tebufenpyrad in 60:40 beeswax:lard, count taken 24 hours after treatment
From the text: In this evaluation, two Varroa jacobsoni infested beehives are monitored for the extent of infestation using stickyboards inserted at the bottom of the hive. Data are presented as the number of mites trapped on the stickyboard per day. Two strips (2.5 x 17cm) containing 18% tebufenpyrad dissolved in a 60:40 beeswax:lard (Crisco®) mixture are inserted into each hive brood chamber as per standard practice. One day after treatment, the stickyboards are removed and the dead mites counted.

[1] = test system: honeybees (Apis mellifera); test: Mortality of topically treated honeybees in the Varroa jacobsoni evaluation; settings: 1 µl acetone droplet on dorsal abdomen, 5 days at 31°C
Experimental: (§1) In this evaluation, honeybees (Apis mellifera) taken from hives which are 70-90% infested with Varroa jacobsoni (Varroa mites) are chilled to immobilize the bees. A 1 µl droplet of an acetone solution of tebufenpyrad is applied to the dorsal abdomen of each bee. Control bees receive 1 µl droplet of acetone. A total of 50-52 bees are treated for each dose rate tested. Treatment dose rates are based upon the LD50 (dose rate required to obtain 50% mortality of healthy uninfected bees) of tebufenypyrad and are set at 10% of the LD50 and subsequent 10-fold dilution thereof. The treated bees are placed in an incubator at 31°C in the dark and fed 50% sugar water ad libitum for 5 days. After incubation, the bees are examined for mortality and mite infestation. The results are shown in Table I below, as % mortality of the total of the bees and the total of the mites.

[2] = test system: Varroa jacobsoni (Varroa mites); test: Efficacy against Varroa jacobsoni parasites on topically treated infested honeybees; settings: 1 µl acetone droplet on dorsal abdomen of bee, 5 days at 31°C
Experimental: as §1

[3] = test system: Acarapis woodi (trachea mites); test: Efficacy against Acarapis woodi parasites, contact with treated glass slides; settings: slides dipped in 500 ppm acetone solution
Experimental: In this evaluation, honeybees (Apis mellifera) which are infested with Acarapis woodi (trachea mites) are dissected to remove the infested tracheae. Glass microscope slides are dipped into acetone solutions of tebufenpyrad (500 ppm)and the acetone is allowed to evaporate. Infested tracheae are placed directly on the treated slides. The mites are removed from the tracheae by dissection and forced to walk across the treated area. The elapsed time is recorded for 100% mortality, i.e. no movement is observed upon agitation.

CCc1nn(C)c(C(=O)NCc2ccc(C(C)(C)C)cc2)c1Cl [Tebufenpyrad, N-(4-t-butylbenzyl)-4-chloro-3-ethyl-1-methylpyrazole-5-carboxamide]
Treatment mites/day (Varroa jacobsoni; Hive 1, pretreatment 101 mites/day): 1777 mites/day | Treatment mites/day (Varroa jacobsoni; Hive 2, pretreatment 66 mites/day): 1080 mites/day | % Mortality Bees ([1]; dose 0.006 µg/bee): 24% | % Mortality Bees ([1]; dose 0.06 µg/bee): 25% | % Mortality Bees ([1]; dose 0.6 µg/bee): 28% | % Mortality Parasites ([2]; dose 0.006 µg/bee): 58% | % Mortality Parasites ([2]; dose 0.06 µg/bee): 44% | % Mortality Parasites ([2]; dose 0.6 µg/bee): 92% | Time required in minutes to achieve 100% mortality ([3]; Rep. 1, 7 mites): 8.5 min | Time required in minutes to achieve 100% mortality ([3]; Rep. 2, 10 mites): 8 min | Time required in minutes to achieve 100% mortality ([3]; Rep. 3, 7 mites): 8 min
